Measurements published in patent US20190022152A1, “MICROBIOME RESPONSE TO AGENTS” (Yeda Research and Development Co., Ltd., priority 2014, published 2019).

Tests used:
mice = assay: Oral glucose tolerance test in mice drinking non-caloric artificial sweeteners (NAS); assay type: in vivo
Source text: (§1) C57Bl/6 WT adult male mice were randomly assigned (without blinding) to treatment groups and were given commercial artificial sweeteners (saccharin-, sucralose- or aspartame-based) or pure saccharin (Sigma Aldrich) in drinking water and fed a high-fat (HFD D12492, 60% Kcal from fat, Research Diets) or standard polysaccharide normal chow (NC) diet (Harlan-Teklad). Compared groups were always fed from the same batch of diet. For antibiotic treatment, mice were given a combination of ciprofloxacin (0.2 gl^−1) and metronidazole ([…]) or vancomycin (0.5 gl^−1) in their drinking water. All antibiotics were obtained from Sigma Aldrich. Adult male outbred Swiss-Webster mice (a widely used mouse strain in germ-free experiments) served as recipients for fecal transplants and were housed in sterile isolators (Park Biosciences). For fecal transplantation experiments, 200 mg of stool (from mouse pellets or human swabs) was resuspended in 5 ml of PBS under anaerobic conditions, vortexed for 3 minutes and allowed to settle by gravity for 2 minutes. Recipient mice were gavaged with 200 μl of the supernatant and maintained on standard NC diet and water throughout the experiment.
The following commercially available NAS were dissolved in mice drinking water to obtain a 10% solution: Sucrazit (5% saccharin, 95% glucose), Sucralite (5% Sucralose), Sweet'n Low Gold (4% Aspartame). 10% glucose (J.T. Baker) and 10% sucrose (Sigma Aldrich) solutions were used for controls. […] For experiments conducted with pure saccharin (Sigma Aldrich) a 0.1 mgml^−1 solution was used in order to meet with FDA defined ADI for saccharin in humans (5 mgkg^−1), according to the following calculation:
(§2) Mice were fasted for 6 hours during the light phase, with free access to water. In all groups of mice where the drinking regime was other than water, it was substituted for water for the period of the fasting and glucose or insulin tolerance test. Blood from the tail vein was used to measure glucose levels using a glucometer (Bayer) immediately before and 15, 30, 60, 90 and 120 minutes after oral feeding with 40 mg glucose (J.T. Baker) or intra-peritoneal injection with 0.1 Ukg^−1 Insulin (Biological Industries). Plasma fasting insulin levels were measured in sera collected immediately before the start of GTT using ELISA (Ultra Sensitive Mouse Insulin ELISA Kit, Crystal Chem).

[1] = tested on: germ-free Swiss-Webster mice; assay: Fecal or culture transplantation into germ-free mice followed by OGTT; assay type: in vivo
Source text: as §1, §2
pooled fecal matter from naïve adult WT C57Bl/6 male mice was resuspended in 5 ml PBS in an anaerobic chamber (Coy Laboratory Products, 75% N2, 20% CO2, 5% H2), vortexed for 3 minutes and allowed to settle by gravity for 2 minutes. […] were added to a tube containing Chopped Meat Carbohydrate Broth, PR II (BD) and […] of a 5 mgml-1 saccharin solution or an equal volume of PBS. Every 3 days, 500 ml of culture were diluted to fresh medium containing saccharin or PBS. After 9 days, cultures were used for inoculation of germ-free mice.

SMILES: O=C1NS(=O)(=O)c2ccccc21 [saccharin]
- glucose tolerance (OGTT) (mice; C57Bl/6 mice on HFD, 0.1 mgml^−1 pure saccharin in drinking water vs water, from 5 weeks, p<0.0002): impaired glucose tolerance
- glucose tolerance (OGTT) (mice; HFD-fed outbred Swiss Webster mice, 0.1 mgml^−1 pure saccharin, 5 weeks, p<0.03): significant glucose intolerance
- glucose tolerance of germ-free recipients ([1]; D7 (post exposure) vs D1 stool from human NAS responders after 7 days commercial saccharin, P<0.004, P<0.02): significant glucose intolerance
- glucose tolerance of germ-free recipients ([1]; D7 vs D1 stool from two human NAS non-responders): normal glucose tolerance
- glucose tolerance of germ-free recipients ([1]; donors HFD-consuming mice drinking pure saccharin vs water, p<0.004): replicated the glucose intolerance phenotype
- glucose tolerance of germ-free recipients ([1]; recipients of in vitro saccharin-treated (5 mgml^−1) fecal culture vs control culture, 6 days, p<0.002): significantly higher glucose intolerance
